For one assay, the system named is left motor cortex. Briefly: Inactivation of the motor cortex by muscimol microinjection in overground-trained SCI rats. Type of assay: in vivo, rat. As to conditions: overground-trained rats with T7/T10 staggered hemisections; intra-cortical microinjection into left motor cortex (800 nl, 4.5 mg/Kg); p<0.01; functionality of lumbosacral circuits uncompromised. The procedure: (§1) To ablate T8-T9 neurons, we infused NMDA (1% in dH2O) into 14 sites (depth 1 mm, total volume 3 μl) covering spinal levels T8-T9. Rats were tested 5 days post-lesion, and sacrificed on the following day. The ablation of neurons was verified post mortem on tissue sections stained with mouse anti-NeuN (1:500, Chemicon, USA) antibodies. To inactivate the motor cortex, we injected the GABA-agonist muscimol intra-cortically (800 nl, 4.5 mg/Kg). Five days prior to experiments, we stereotaxically implanted a catheter (OD: 0.61 mm, ID: 0.28 mm) into the left motor cortex at a depth of 1.5 mm. Proper catheter location was verified post mortem on tissue sections stained (Invitrogen, USA) for fluorescent Nissl visualization.
Contrary to primates, the rodent motor cortex is not essential to produce locomotion (G. Courtine et al., Can experiments in nonhuman primates expedite the translation of treatments for spinal cord injury in humans? Nature medicine 13, 561 (May, 2007)). […] First, we implanted stimulating epidural electrodes over the left motor cortex to verify that the reorganization of neuronal pathways re-established connectivity across the lesion. […] Second, we implanted a microwire array in the vicinity of CST neurons projecting to T8-T9 segments, and recorded neuronal modulations during voluntary locomotion in overground-trained rats (n=3). […]

In another assay the test system is T8-T9 neurons. Description: Ablation of T8-T9 neurons by NMDA infusion in overground-trained SCI rats. Conditions: overground-trained rats with T7/T10 staggered hemisections, NMDA 1% in dH2O into 14 sites, tested 5 days post-lesion, p<0.01, functionality of lumbosacral circuits uncompromised. The format is in vivo, rat. The procedure: as §1
Anatomical examinations highlighted an extensive remodelling of supraspinal and intraspinal projections in rats that regained voluntary locomotion. We first conducted retrograde tract tracing from L1-L2 locomotor centers. We found a significant increase (p<0.01) in the number of labeled neurons in intermediate and ventral laminae of T8-T9 segments in both overground-trained and treadmill-trained rats compared to non-trained animals. Analysis of the activity-dependent marker cfos after continuous overground locomotion confirmed that the labeled neurons were active during walking. […]

On to `NCc1cc(=O)[nH]o1` [Muscimol, muscimol], for which the “effect on voluntary hindlimb locomotion” value with left motor cortex is listed as “immediately suppressed voluntary hindlimb locomotion”.

Turning to `CN[C@H](CC(=O)O)C(=O)O` [NMDA, N-methyl-D-aspartic acid], in the assay on T8-T9 neurons, the “effect on regained voluntary locomotion” value was “abolished the regained voluntary locomotion”.
